The target in one data set is VEGFR2 (Homo sapiens (Human), UniProt P35968). Description: In vitro kinase binding assay (VEGFR2). The protocol: All reactions performed in polypropylene 384-well plate. Each was a final volume of 0.02 ml.
Another data set addresses TIE II (Homo sapiens (Human), UniProt Q02763). Put plainly: TIE II inhibition, dissociation constant. The data set is classed as binding.
For data set [1] the following is noted: rat, in vivo, 40.21 mg/kg.
The subject of data set [2] is choroidal neovascular (CNV) lesions. Put plainly: Localization and persistence in CNV lesions after systemic administration, laser-induced CNV mouse model. In kind it is in vivo, C57BL/6 mice. The protocol: Two studies were conducted in C57BL/6 mice (n=5/group) administered intravenously 100 μL of D-ICG or vehicle control. In the first study, mice were administered D-ICG or vehicle control at 1, 3, 7, or 14 days post-laser and eyes were analyzed by optical coherence tomography (OCT) with ICG imaging at 4 or 24 hr post-dose. Flat-mounts of the sclera-choroid/retinal pigment epithelial (RPE) complexes were stained by fluorescently tagged isolectin and IBA-1.
The second study evaluated the localization and persistence of dendrimer conjugates in the CNV lesion. In the second study, mice were administered intravenously 100 μL of D-ICG and 100 μL of D-TRITC (1 hr after D-ICG) or vehicle control at 24 hr post-laser. Mice analyzed and sacrificed at 4, 7, 14, 21, and 28 days post-dose (n=5/group). For control group, free ICG (1.23 mg/mL), 100 μL, IV dosed 24 hr post-laser and mice analyzed and sacrificed at 2, 4, 7, and 14 days post-dose (n=5/group). Eyes analyzed by optical coherence tomography (OCT) with ICG imaging. Flat-mounts of the sclera-choroid/retinal pigment epithelial (RPE) complexes were stained by fluorescently tagged IBA-1 alone.

Another data set in a line: Toxicokinetics in rats. The data set is classed as in vivo, Sprague-Dawley rats. Conditions: D-4517 12 mg/kg daily IP, sunitinib 30 mg/kg daily oral.
The subject of data set [3] is choroidal neovascularization (CNV). Put plainly: Laser-induced CNV mouse model, single IP dose, duration of efficacy. In kind it is in vivo, C57BL/6 mice. The following applies: single IP dose (aflibercept IVT).
The test system is the same in data set [4]. Put plainly: Laser-induced CNV mouse model, single IV dose. The following applies: single dose 24 hr after laser (IV; aflibercept IVT 40 μg); CNV area 7 days after laser.
Description: As a positive control group, a cohort of mice were administered aflibercept (EYLEA®) intravitreally (IVT; 1 μL, 40 μg). The CNV area was measured 7 days after laser treatment by both fluorescein angiography and flat-mounts of the sclera-choroid/RPE complexes stained with isolectin IB4.

Chain of VEGFR2 (P35968 20-1356): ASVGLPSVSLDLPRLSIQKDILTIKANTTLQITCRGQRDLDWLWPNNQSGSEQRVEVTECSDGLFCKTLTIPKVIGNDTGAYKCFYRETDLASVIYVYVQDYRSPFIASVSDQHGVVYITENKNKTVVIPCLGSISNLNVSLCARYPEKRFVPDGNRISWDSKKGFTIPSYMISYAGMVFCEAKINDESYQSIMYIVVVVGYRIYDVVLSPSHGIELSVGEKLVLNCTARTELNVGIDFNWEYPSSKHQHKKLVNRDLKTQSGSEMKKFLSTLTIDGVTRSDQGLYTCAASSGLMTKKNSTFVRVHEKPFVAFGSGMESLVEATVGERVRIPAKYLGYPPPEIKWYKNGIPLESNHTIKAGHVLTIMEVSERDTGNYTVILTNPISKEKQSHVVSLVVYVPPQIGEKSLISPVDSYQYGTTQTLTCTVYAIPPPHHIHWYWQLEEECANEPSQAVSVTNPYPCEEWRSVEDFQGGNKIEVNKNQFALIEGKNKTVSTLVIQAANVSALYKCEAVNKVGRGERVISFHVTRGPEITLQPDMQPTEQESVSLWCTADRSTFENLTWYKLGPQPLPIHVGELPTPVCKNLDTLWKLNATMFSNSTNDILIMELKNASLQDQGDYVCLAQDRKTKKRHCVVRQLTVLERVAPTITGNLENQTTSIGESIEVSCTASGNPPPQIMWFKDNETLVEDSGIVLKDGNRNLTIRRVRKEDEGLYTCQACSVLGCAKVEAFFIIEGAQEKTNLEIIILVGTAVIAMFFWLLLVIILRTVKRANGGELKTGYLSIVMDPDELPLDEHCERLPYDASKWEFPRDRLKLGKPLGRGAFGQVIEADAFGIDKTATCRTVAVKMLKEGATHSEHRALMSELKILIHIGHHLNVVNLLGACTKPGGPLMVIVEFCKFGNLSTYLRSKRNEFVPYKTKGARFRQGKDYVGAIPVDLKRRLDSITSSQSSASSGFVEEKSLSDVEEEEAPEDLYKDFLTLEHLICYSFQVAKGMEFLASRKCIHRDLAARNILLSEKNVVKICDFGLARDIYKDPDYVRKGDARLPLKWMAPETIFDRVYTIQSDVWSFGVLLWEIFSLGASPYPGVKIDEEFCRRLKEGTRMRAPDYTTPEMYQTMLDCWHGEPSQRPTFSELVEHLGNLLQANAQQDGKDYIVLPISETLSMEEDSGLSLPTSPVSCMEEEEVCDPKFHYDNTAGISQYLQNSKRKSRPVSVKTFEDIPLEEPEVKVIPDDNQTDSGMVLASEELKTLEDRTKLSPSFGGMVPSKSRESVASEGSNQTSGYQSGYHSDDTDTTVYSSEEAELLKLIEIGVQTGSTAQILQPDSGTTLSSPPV
Chain of TIE II (Q02763 23-1124): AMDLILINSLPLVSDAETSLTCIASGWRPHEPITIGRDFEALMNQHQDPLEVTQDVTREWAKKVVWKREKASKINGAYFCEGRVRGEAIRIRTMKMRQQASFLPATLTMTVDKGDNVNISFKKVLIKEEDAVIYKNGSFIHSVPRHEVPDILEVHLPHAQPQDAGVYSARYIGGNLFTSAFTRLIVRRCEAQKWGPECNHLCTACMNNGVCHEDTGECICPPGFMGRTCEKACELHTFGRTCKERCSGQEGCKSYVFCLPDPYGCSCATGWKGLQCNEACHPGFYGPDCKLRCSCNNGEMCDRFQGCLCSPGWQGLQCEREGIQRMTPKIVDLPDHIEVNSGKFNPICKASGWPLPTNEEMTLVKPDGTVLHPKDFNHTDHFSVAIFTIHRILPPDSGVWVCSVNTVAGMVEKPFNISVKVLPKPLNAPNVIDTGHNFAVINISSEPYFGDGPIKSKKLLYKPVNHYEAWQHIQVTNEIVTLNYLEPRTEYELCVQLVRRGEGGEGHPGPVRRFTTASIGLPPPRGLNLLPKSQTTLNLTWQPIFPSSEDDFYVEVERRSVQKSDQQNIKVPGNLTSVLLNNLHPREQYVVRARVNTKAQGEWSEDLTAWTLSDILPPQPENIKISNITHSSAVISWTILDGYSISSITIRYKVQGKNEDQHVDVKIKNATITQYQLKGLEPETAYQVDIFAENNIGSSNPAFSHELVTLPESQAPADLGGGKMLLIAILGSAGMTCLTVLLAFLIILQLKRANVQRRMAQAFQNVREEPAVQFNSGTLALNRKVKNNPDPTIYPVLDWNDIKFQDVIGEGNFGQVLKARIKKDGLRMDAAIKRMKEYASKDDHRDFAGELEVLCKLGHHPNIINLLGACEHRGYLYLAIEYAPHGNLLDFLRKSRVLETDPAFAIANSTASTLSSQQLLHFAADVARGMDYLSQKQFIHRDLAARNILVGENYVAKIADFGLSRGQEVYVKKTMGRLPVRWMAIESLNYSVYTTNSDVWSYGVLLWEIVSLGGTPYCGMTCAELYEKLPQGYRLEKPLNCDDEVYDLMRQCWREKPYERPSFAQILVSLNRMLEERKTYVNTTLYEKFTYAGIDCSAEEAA
Description for Toxicokinetics in rats: Toxicokinetic data was collected in rats. […] Blood samples were collected, and plasma drug concentrations were determined. Noncompartmental toxicokinetic parameters were estimated.

As a reminder, the Kd is the concentration at which binding is half-saturated. Read a high Kd as a looser complex. Compound `Cc1[nH]c(/C=C2\C(=O)Nc3ccc(F)cc32)c(C)c1C(=O)NCCNC(=O)CCOCCOCCOCCN=[N+]=[N-]` gave a Kd at VEGFR2 of 1 nM. As for `COC(=O)Nc1nc2ccc(Oc3ccc(NC(=O)Nc4cc(C(F)(F)F)ccc4OCCCCN=[N+]=[N-])cc3)cc2[nH]1` [Structure V], the Kd on TIE II is approximately 8.8 nM. `CCN(CC)CCNC(=O)c1c(C)[nH]c(/C=C2\C(=O)Nc3ccc(F)cc32)c1C` [Sunitinib Malate, reference compound]: the overall tolerability entry in data set [1] was “various clinical and pathological changes in addition to mortality in female rats”.

As to `CC1(C)C(/C=C/C=C/C=C/C=C2\N(CCCCS(=O)(=O)[O-])c3ccc4ccccc4c3C2(C)C)=[N+](CCCCS(=O)(=O)[O-])c2ccc3ccccc3c21.[Na+]` [free ICG, indocyanine green], in data set [2] (free ICG control groups, IV 24 hr post-laser), the “time at which no longer present in the lesions” value is 7-14 days post-laser. For the same compound, the “uptake/distribution in CNV lesions” value in data set [2] (systemic administration, within 24 hr after dosing) is “distributes non-specifically”. Take `CCN(CC)CCNC(=O)c1c(C)[nH]c(/C=C2\C(=O)Nc3ccc(F)cc32)c1C` [free sunitinib, sunitinib]: the “AUC estimates, sunitinib compared to D-4517” value in the data set “Toxicokinetics in rats” is on record as “higher”.

Take aflibercept: the CNV area result was “Significant reduction in the CNV area” in data set [3] (day 7 post-treatment) and “not sustained” in data set [3] (day 14 post-treatment). Besides, the “reduction in CNV area compared with vehicle control” value in data set [4] was “Statistically significant reductions in the CNV area”.
